The text below walks through data of US4740233A, “Substituted 1,2,4-triazolo[1,5-a]-pyrimidine-2-sulfonamides and compositions and methods of controlling undesired vegetation and suppressing the nitrification of ammonium nitrogen in soil” (The Dow Chemical Company, priority 1986, dated 1988).

For test [1], the system named is cotton. Briefly: Postemergent control of plant species. It counts as in vivo, Gossypium spp. As to conditions: Gossypium hirsutum, post-emergence, 336 h, read-out: percent postemergent control. The protocol: (§1) In representative operations, each compound to be utilized in a series of tests is dissolved in acetone to one-half of the final volume (twice the final concentration) to be used and the acetone solution in each case is admixed with an equal volume of water containing 0.1 percent by weight of surface active material. The compositions, generally in the nature of an emulsion, were employed to spray separate respective plant species which had been grown to a 2-4 leaf stage in soil of good nutrient content in a greenhouse. The various beds were positioned side by side and exposed to substantially identical conditions of temperature and light. Each bed was maintained so as to prevent any interaction with test compounds in different seed beds. Other plants were left untreated to serve as controls. After treatment, the plants were maintained for about two weeks under greenhouse conditions conducive for good plant growth and watered as necessary. Control refers to the reduction in growth compared to the observed results of the same untreated species.

In test [2] the test system is rape. Briefly: Postemergent control of plant species. It counts as in vivo, Brassica napus. To be noted: Brassica napus, post-emergence, 336 h, read-out: percent postemergent control. The protocol: as §1
For test [3], the system named is soybean. Briefly: Postemergent control of plant species. It counts as in vivo, Glycine max. To be noted: Glycine max, post-emergence, 336 h, read-out: percent postemergent control. The protocol:
as §1

For test [4], the system named is sugar beet. Briefly: Postemergent control of plant species. The class given is in vivo, Beta saccharifera. To be noted: Beta vulgaris, post-emergence, 336 h, read-out: percent postemergent control. As to the method:
as §1

In test [5] the test system is jimsonweed. Briefly: Postemergent control of plant species. It counts as in vivo, Datura stramonium. As to conditions: Datura stramonium, post-emergence, 336 h, read-out: percent postemergent control. As to the method:
as §1

Test [6] relates to annual morning glory. Briefly: Postemergent control of plant species. The class given is in vivo, Ipomoea spp. To be noted: Ipomoea, post-emergence, 336 h, read-out: percent postemergent control. The protocol: as §1
In a further test the test system is pigweed. Briefly: Postemergent control of plant species. The class given is in vivo, Amaranthus spp. As to conditions: Amaranthus retroflexus, post-emergence, 336 h, read-out: percent postemergent control. The protocol:
as §1

The subject of test [7] is velvetleaf. Briefly: Postemergent control of plant species. It counts as in vivo, Abutilon theophrasti. As to conditions: Abutilon theophrasti, post-emergence, 336 h, read-out: percent postemergent control. As to the method: as §1
For test [8], the system named is corn. Briefly: Postemergent control of plant species. The class given is in vivo, Zea mays. To be noted: Zea mays, post-emergence, 336 h, read-out: percent postemergent control. As to the method: as §1
Test [9] concerns rice. Briefly: Postemergent control of plant species. It counts as in vivo, Oryza sativa. As to conditions: Oryza sativa, post-emergence, 336 h, read-out: percent postemergent control. The protocol:
as §1

Test [10] concerns sorghum. Briefly: Postemergent control of plant species. The class given is in vivo, Sorghum vulgare. As to conditions: Sorghum, post-emergence, 336 h, read-out: percent postemergent control. As to the method:
as §1

Test [11] deals with wheat. Briefly: Postemergent control of plant species. The class given is in vivo, Triticum aestivum. As to conditions: Triticum aestivum, post-emergence, 336 h, read-out: percent postemergent control. As to the method:
as §1

Test [12] concerns barnyardgrass. Briefly: Postemergent control of plant species. It counts as in vivo, Echinochloa crusgalli. To be noted: Echinochloa crus-galli, post-emergence, 336 h, read-out: percent postemergent control. As to the method: as §1
The next test relates to crabgrass. Briefly: Postemergent control of plant species. It counts as in vivo, Digitaria spp. As to conditions: Digitaria sanguinalis, post-emergence, 336 h, read-out: percent postemergent control. The protocol:
as §1

Test [13] relates to yellow foxtail. Briefly: Postemergent control of plant species. The class given is in vivo, Setaria lutescens. As to conditions: Setaria, post-emergence, 336 h, read-out: percent postemergent control. As to the method:
as §1

In test [14] the test system is johnson grass. Briefly: Postemergent control of plant species. The class given is in vivo, Sorghum halepense. As to conditions: Sorghum halepense, post-emergence, 336 h, read-out: percent postemergent control. The protocol: as §1
In test [15] the test system is wild oats. Briefly: Postemergent control of plant species. To be noted: Avena fatua, post-emergence, 336 h, read-out: percent postemergent control. It counts as in vivo, Avena fatua. As to the method: as §1
Test [16] concerns yellow nutsedge. Briefly: Postemergent control of plant species. It counts as in vivo, Cyperus esculentus. As to conditions: Cyperus, post-emergence, 336 h, read-out: percent postemergent control. The protocol:
as §1

The subject of test [17] is nitrification of ammonium nitrogen. Briefly: Suppression of nitrification of ammonium nitrogen in soil. As to conditions: 27° C. In a few lines:
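Soil (20 g) moistened to its 1/3 bar tension value, mixed with test chemical and incubated sealed for two weeks at 27° C. Nitrate extracted with ammonium sulfate solution and measured by nitrate-specific ion electrode; value given as % NH4-N remaining.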

The subject of test [18] is cotton. Briefly: Preemergent control of plant species. To be noted: Gossypium hirsutum, pre-emergence, 336 h; 0.25 lb/acre; read-out: percent preemergent control. The class given is in vivo, Gossypium spp. In outline:
(§2)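 Growth reduction relative to untreated plants of the same species, assessed two weeks after treatment, defines the control value. Compositions, mostly aqueous emulsions, were deposited uniformly on seeded greenhouse soil beds at the tabulated rates, with a water-treated bed as reference.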

Test [19] relates to rape. Briefly: Preemergent control of plant species. It counts as in vivo, Brassica napus. To be noted: Brassica napus, pre-emergence, 336 h; 0.25 lb/acre; read-out: percent preemergent control. In a few lines: as §2
In test [20] the test system is soybean. Briefly: Preemergent control of plant species. It counts as in vivo, Glycine max. To be noted: Glycine max, pre-emergence, 336 h; 0.25 lb/acre; read-out: percent preemergent control. In outline: as §2
The subject of test [21] is sugar beet. Briefly: Preemergent control of plant species. To be noted: Beta vulgaris, pre-emergence, 336 h; 0.25 lb/acre; read-out: percent preemergent control. The class given is in vivo, Beta saccharifera. In a few lines:
as §2

In test [22] the test system is jimsonweed. Briefly: Preemergent control of plant species. To be noted: Datura stramonium, pre-emergence, 336 h; 0.25 lb/acre; read-out: percent preemergent control. It counts as in vivo, Datura stramonium. In outline:
as §2

Test [23] deals with annual morning glory. Briefly: Preemergent control of plant species. To be noted: Ipomoea, pre-emergence, 336 h; 0.25 lb/acre; read-out: percent preemergent control. The class given is in vivo, Ipomoea spp. In a few lines:
as §2

In test [24] the test system is velvetleaf. Briefly: Preemergent control of plant species. It counts as in vivo, Abutilon theophrasti. To be noted: Abutilon theophrasti, pre-emergence, 336 h; 0.25 lb/acre; read-out: percent preemergent control. In outline: as §2
The subject of test [25] is corn. Briefly: Preemergent control of plant species. As to conditions: Zea mays, pre-emergence, 336 h; 0.25 lb/acre; read-out: percent preemergent control. It counts as in vivo, Zea mays. In outline:
as §2

In test [26] the test system is rice. Briefly: Preemergent control of plant species. It counts as in vivo, Oryza sativa. As to conditions: Oryza sativa, pre-emergence, 336 h; 0.25 lb/acre; read-out: percent preemergent control. In outline:
as §2

The subject of test [27] is sorghum. Briefly: Preemergent control of plant species. The class given is in vivo, Sorghum vulgare. As to conditions: Sorghum, pre-emergence, 336 h; 0.25 lb/acre; read-out: percent preemergent control. In outline: as §2
Test [28] concerns wheat. Briefly: Preemergent control of plant species. The class given is in vivo, Triticum aestivum. As to conditions: Triticum aestivum, pre-emergence, 336 h; 0.25 lb/acre; read-out: percent preemergent control. In outline: as §2
Test [29] deals with barnyardgrass. Briefly: Preemergent control of plant species. The class given is in vivo, Echinochloa crusgalli. As to conditions: Echinochloa crus-galli, pre-emergence, 336 h; 0.25 lb/acre; read-out: percent preemergent control. In outline:
as §2

The test system of test [30] is johnson grass. Briefly: Preemergent control of plant species. The class given is in vivo, Sorghum halepense. To be noted: Sorghum halepense, pre-emergence, 336 h; 0.25 lb/acre; read-out: percent preemergent control. In outline:
as §2

Test [31] has as its system wild oats. Briefly: Preemergent control of plant species. The class given is in vivo. As to conditions: Avena fatua, pre-emergence, 336 h; 0.25 lb/acre; read-out: percent preemergent control. In a few lines:
as §2

For test [32], the system named is yellow foxtail. Briefly: Preemergent control of plant species. The class given is in vivo, Setaria lutescens. As to conditions: Setaria, pre-emergence, 336 h; 0.25 lb/acre; read-out: percent preemergent control. In a few lines:
as §2

The test system of test [33] is yellow nutsedge. Briefly: Preemergent control of plant species. It counts as in vivo, Cyperus esculentus. To be noted: Cyperus, pre-emergence, 336 h; 0.25 lb/acre; read-out: percent preemergent control. In a few lines: as §2

As for `COC(=O)c1cccc(C)c1N(C)S(=O)(=O)c1nc2nc(C)cc(C)n2n1` [Compound 261], the plant injury at 500 ppm in the test with cotton [1] came out at 60%; in the test on rape [2] it was 95%; in the test with soybean [3], 90%; in the test with sugar beet [4], 90%; with corn [8] it was 0%; with rice [9], 0%. The plant injury at 500 ppm in the test with sorghum [10] was determined as 30%; in the test with wheat [11], 0%. The pest or weed control at 500 ppm in the test on jimsonweed [5] was 95%; in the test with annual morning glory [6], 90%; with pigweed it was 65%; with velvetleaf [7] it was 95%; in the test with barnyardgrass [12], 20%; in the test on crabgrass it was 10%. The pest or weed control at 500 ppm in the test on yellow foxtail [13] amounted to 95%; with johnson grass [14] it was 100%; in the test on wild oats [15], 0%; in the test with yellow nutsedge [16], 0%. The “% NH4-N Remaining After 2 Weeks Incubation” value came out at 0% in test [17] (0.06 ppm), 0% in test [17] (0.25 ppm), 21% in test [17] (1 ppm) and 18% in test [17] (4 ppm).
With `CSc1cccc(Cl)c1NS(=O)(=O)c1nc2nc(C)cc(C)n2n1` [Compound 69], the plant injury at 500 ppm in the test with cotton [1] was 90%; in the test with rape [2], 90%; in the test on soybean [3] it was 40%; in the test on sugar beet [4], 100%; in the test on corn [8] it was 90%; in the test with rice [9], 0%. Also, the results for the plant injury at 500 ppm with sorghum [10] and with wheat [11] were 80% and 0%, respectively. Also, the pest or weed control at 500 ppm with jimsonweed [5] worked out at 90%; in the test with annual morning glory [6] it was 80%; with pigweed, 100%; in the test with velvetleaf [7], 85%; in the test on barnyardgrass [12], 80%; in the test with crabgrass it was 80%. The pest or weed control at 500 ppm in the test on yellow foxtail [13] was 90%; in the test on johnson grass [14], 95%; in the test on wild oats [15], 0%; in the test with yellow nutsedge [16] it was 80%.
`CCOC(=O)CN(c1c(C)cccc1C(=O)OC)S(=O)(=O)c1nc2nc(C)cc(C)n2n1` [Compound 266]: the plant injury at 500 ppm worked out at 10% in the test with cotton [1]; 75% with rape [2]; 80% in the test on soybean [3]; 30% with sugar beet [4]; 0% in the test on corn [8]; 40% with rice [9]. Besides, the plant injury at 500 ppm with sorghum [10] and with wheat [11] was 0% in each case. In addition, the pest or weed control at 500 ppm came out at 90% with jimsonweed [5]; 85% in the test on annual morning glory [6]; 25% in the test on pigweed; 75% in the test on velvetleaf [7]; 75% with barnyardgrass [12]; 70% with crabgrass. In addition, the pest or weed control at 500 ppm in the test on yellow foxtail [13] is 80%; in the test on johnson grass [14], 0%; in the test with wild oats [15] it was 0%; with yellow nutsedge [16] it was 0%. Also, the “% NH4-N Remaining After 2 Weeks Incubation” value in test [17] (0.06 ppm) turned out to be 0%; in test [17] (0.25 ppm), 0%; in test [17] (1 ppm) it was 2%; in test [17] (4 ppm), 13%.
As to `C=CCOC(=O)c1cccc(C)c1NS(=O)(=O)c1nc2nc(C)cc(C)n2n1` [Compound 76], the plant injury at 280.212 g/ha came to 60% in the test with cotton [18]; 100% in the test with rape [19]; 95% in the test on soybean [20]; 100% in the test with sugar beet [21]; 100% in the test with corn [25]; 70% in the test on rice [26]. For the same compound, the plant injury at 280.212 g/ha in the test with sorghum [27] is 90%; in the test on wheat [28] it was 100%. The pest or weed control at 280.212 g/ha was 100% with jimsonweed [22]; 90% with annual morning glory [23]; 100% in the test with velvetleaf [24]; 70% with barnyardgrass [29]; 80% with johnson grass [30]; 90% in the test on wild oats [31]. Moreover, the pest or weed control at 280.212 g/ha amounted to 90% in the test with yellow foxtail [32] and 100% in the test with yellow nutsedge [33]. Besides, the “% NH4-N Remaining After 2 Weeks Incubation” value stood at 34% in test [17] (0.06 ppm), 52% in test [17] (0.25 ppm), 74% in [17] (1 ppm) and 86% in test [17] (4 ppm).
